Data on 1 compound can be found in article PMC7108740, “Exploring the molecular structures that confer ligand selectivity for galanin type II and III receptors” (PLoS ONE, 2020).

What all share (assay type): cell-based
The target in experiment [1] is T1, GALR3 single mutant S^266T (Homo sapiens, UniProt O60755, S266T).
T1 construct: expressed in transfected cells; host or cells: HEK293 cells stably expressing Gqi
The experiment is described as follows: SRE-luc luciferase assay, GALR3 S266T. The settings on record: GALR3 S^266T; SRE-luc in HEK293 Gqi cells, ligand 6 h; mean ± S.E.; SEM. The source says:
(§1) For domain swapping between GALR2 and GALR3, individual cDNA fragments of interest were amplified by polymerase chain reaction (PCR) with Pfu polymerase (ELPIS Biotech, Daejeon, Korea) and two specific primers, one corresponding to the 5' or 3' end of the GALR2 or GALR3 cDNA and the other to the region of overlap between the two receptors. The two resulting fragments, one from GALR2 and the other from GALR3, were subjected to a second round of PCR to generate the chimeric cDNAs. To construct single, double-, triple-, pentuple-, hextuple-, and septuple-mutant receptors, amino acids of GALR3 were substituted for the amino acids at the corresponding positions in GALR2 using PCR-based site-directed mutagenesis. All of the chimeric constructs were cloned into the pcDNA3 expression vector at HindⅢ and XbaⅠ sites. The DNA sequences of the chimeras were verified by automatic sequencing. […] The luciferase activity in 50 μl cell extract was determined using a luciferase assay system according to the standard protocol for the Synergy 2 Multi-Mode Microplate Reader (BioTek, Winooski, VT, USA). […] The concentrations of agonists that induced half-maximal stimulation (EC50) were calculated using the GraphPad PRISM5 software (GraphPad software, Inc., San Diego, CA). […]

Experiment [2] has as its target T2, GALR3 single mutant A^191F (Homo sapiens, UniProt O60755, A191F).
T2 construct: expressed in transfected cells; host or cells: HEK293 cells stably expressing Gqi
Kind of experiment: SRE-luc luciferase assay, GALR3 A191F. The settings on record: GALR3 A^191F; SRE-luc in HEK293 Gqi cells, ligand 6 h; mean ± S.E.; SEM.
Excerpt: as §1

The target of experiment [3] is T3, GALR3 single mutant P^267R (Homo sapiens, UniProt O60755, P267R).
T3 construct: expressed in transfected cells; host or cells: HEK293 cells stably expressing Gqi
The experiment is described as follows: SRE-luc luciferase assay, GALR3 P267R. The settings on record: GALR3 P^267R; SRE-luc in HEK293 Gqi cells, ligand 6 h; mean ± S.E.; SEM.
Excerpt: as §1

A further experiment concerns the target T4, GALR3 (Homo sapiens, UniProt O60755).
T4 sequence (O60755 1-368): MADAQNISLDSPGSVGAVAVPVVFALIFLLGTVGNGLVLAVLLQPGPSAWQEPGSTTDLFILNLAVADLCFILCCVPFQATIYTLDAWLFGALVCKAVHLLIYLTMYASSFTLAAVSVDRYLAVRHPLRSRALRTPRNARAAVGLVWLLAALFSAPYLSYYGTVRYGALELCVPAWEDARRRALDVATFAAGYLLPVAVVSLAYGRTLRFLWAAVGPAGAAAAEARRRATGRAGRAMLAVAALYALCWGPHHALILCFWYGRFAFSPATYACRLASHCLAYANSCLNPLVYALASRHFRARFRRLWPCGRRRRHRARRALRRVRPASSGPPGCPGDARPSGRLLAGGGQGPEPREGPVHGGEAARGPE
The experiment is described as follows: cAMP assay (inhibition of forskolin-induced cAMP), WT GALR3. More on the design: expressed in transfected cells; host or cells: HEK293 cells stably expressing pGlosensor-22F cAMP plasmid. The settings on record: Glosensor-22F cAMP HEK293 cells, agonist 10 min then forskolin 10 μM, mean ± SE, SEM. How it is done:
SPX-induced or Qu-SPX-induced cyclic adenosine monophosphate (cAMP) mobilization was measured in HEK293 cells stably expressing the pGlosensor^TM-22F cAMP plasmid (Promega Corp., Madison, WI, USA). The Glosensor-22F cAMP HEK293 cells were seeded on 96-well plates at a density of 2.0 × 10^4 cells/well 24 h before transfection. A mixture including 100 ng expression plasmid and lipofectamine 2000 reagent in diluted Opti-MEM (Gibco) was incubated at room temperature for 20 min. The mixtures were added into each well according to the manufacturer's instructions (Invitrogen, CA, USA). After 48 h, Glosensor cAMP substrates were added to the transfected cells in CO2-independent media. After 2 h, the cells were incubated with a range of agonist concentrations or vehicle for 10 min and then exposed to foskolin (10 μM). Luminescence was measured for up to 30 min using a Microplate Reader (BioTek, Winooski, VT, USA).
Data analysis was performed by non-linear regression with a sigmoidal dose-response curve. The concentrations of agonists that induced half-maximal stimulation (EC50) were calculated using the GraphPad PRISM5 software (GraphPad software, Inc., San Diego, CA). All data are presented as the mean ± standard error (SE) of at least three independent experiments. […]

T1 sequence (O60755 whole entry S266T): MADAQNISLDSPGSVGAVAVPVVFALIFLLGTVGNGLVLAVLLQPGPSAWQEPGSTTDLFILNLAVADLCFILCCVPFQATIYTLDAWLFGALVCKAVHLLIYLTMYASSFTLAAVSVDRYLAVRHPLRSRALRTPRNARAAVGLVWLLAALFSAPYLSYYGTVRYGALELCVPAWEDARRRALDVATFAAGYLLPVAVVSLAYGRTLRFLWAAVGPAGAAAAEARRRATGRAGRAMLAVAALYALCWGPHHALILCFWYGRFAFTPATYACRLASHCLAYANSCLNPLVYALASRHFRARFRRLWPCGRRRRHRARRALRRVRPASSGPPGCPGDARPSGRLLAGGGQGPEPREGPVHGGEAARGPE
T2 sequence (O60755 whole entry A191F): as the sequence (O60755 whole entry S266T) above, with A191F, T266S counted along it
T3 sequence (O60755 whole entry P267R): as the sequence (O60755 whole entry S266T) above, with T266S, P267R counted along it

As usually defined, the EC50 is the concentration that produces a half-maximal response. As for `CSCC[C@H](NC(=O)[C@H](C)NC(=O)[C@H](CCC(N)=O)NC(=O)[C@@H]1CCCN1C(=O)[C@@H](NC(=O)[C@H](Cc1c[nH]c2ccccc12)NC(=O)[C@@H](N)CC(N)=O)[C@@H](C)O)C(=O)N[C@@H](CC(C)C)C(=O)N[C@@H](Cc1ccc(O)cc1)C(=O)N[C@@H](CC(C)C)C(=O)N[C@@H](CCCCN)C(=O)NCC(=O)N[C@@H](C)C(=O)N[C@@H](CCC(N)=O)C(N)=O` [SPX, reference compound], the EC50 in experiment [1] was 38 ± 10.5 nM; in experiment [2], 91.2 ± 31 nM; in experiment [3], 115 ± 48.7 nM; on GALR3, 117 ± 51.4 nM.
